≈ marks a conversion by molar mass, not a printed value.
Legend:
[1] = tested on: Rhinovirus Type 13; assay: Inhibition of cytopathic effect in WI-38 cell culture tubes, rhinovirus type 13; type: cell-based; conditions: Enterovirus, WI-38 cells, read-out: Inhibition grade, Rhinovirus Type 13; for inhibition at 25 µg/mL: 25 μg/ml
Procedure: (§1) The test compound was dissolved in an appropriate solvent (generally dimethyl sulfoxide) and incubated at 56° C. for at least 15 minutes and this solution was then used to prepare various test solutions having the desired concentration of test compound in preheated WI maintenance medium (49% Eagles, 49% medium 199, 2% fetal calf serum and antibiotics).
(§2) Triplicate cell culture tubes (WI-38 human embryonic lung cell culture tubes) were fed with 1 ml of medium containing the compound at specified concentrations and inoculated with 3-300 TCID50 (3-300 times the tissue culture infective dose 50, i.e., the dose required to infect 50% of the cell cultures tested). Simultaneous viral titrations were performed. The tissue cultures were supplemented with fresh medium when necessary (around 3-4 days) until viral titrations were completed.
(§3) The cell culture tubes were examined dialy for cytopathic effect. […] Comparisons were made at that time with the percentage of cell sheet destruction in tubes containing virus compound mixtures. Observed differences of 75% or more were graded "+", 74-50% as "±", and less than 50% as "-" inhibition.

[2] = tested on: Rhinovirus Type 8; assay: Inhibition of cytopathic effect in WI-38 cell culture tubes, rhinovirus type 8; type: cell-based; conditions: Enterovirus, WI-38 cells, read-out: Inhibition grade, Rhinovirus Type 8; for inhibition at 25 µg/mL: 25 μg/ml
Procedure: as §1, §2, §3

[3] = tested on: rhinovirus type 5 (RV-5); assay: Tissue culture testing, rhinovirus type 5 in HeLa cells; type: cell-based; conditions: Enterovirus, 48 and 72 hours, NA = not active at the standard test conditions, read-out: RV-5: lowest concentration of the compound necessary to cause a 50 percent reduction in cytopathic effect
Procedure: (§4) Monolayered HeLa cells in 16 millimeter (mm) tissue culture dishes were treated with 1 ml of culture medium (Eagles medium supplemented with fetal calf serum) containing subject compound at an appropriate concentration or containing no compound at all. Culture media such as those described herein are more fully described in standard texts, as for example, Kuchler's Biochemical Methods in Cell Culture and Virology, Dowden, Hutchinson and Ross, Inc., Stroudsberg, PA (1977). Following treatment, cells were challenged with 0.05 ml of rhinovirus type 1A (RV-1A), rhinovirus type 2 (RV-2) or Coxsackie A21 virus (Cox A21) in culture medium. Some of the compounds were also tested against rhinovirus type 5 (RV-5), rhinovirus type 8 (RV-8) or rhinovirus type 64 (RV-64). Cell controls received no viruses.
(§5) ^2 Lowest concentration of the compound (μg/ml) necessary to cause

[4] = tested on: Rhinovirus Type 39; assay: Inhibition of cytopathic effect in WI-38 cell culture tubes, rhinovirus type 39; type: cell-based; conditions: Enterovirus, WI-38 cells, read-out: Inhibition grade, Rhinovirus Type 39; for inhibition at 25 µg/mL: 25 μg/ml
Procedure: as §1, §2, §3

[5] = tested on: rhinovirus type 2 (RV-2); assay: Tissue culture testing, rhinovirus type 2 in HeLa cells; type: cell-based; conditions: Enterovirus, 48 and 72 hours, NA = not active at the standard test conditions, read-out: RV-2: lowest concentration of the compound necessary to cause a 50 percent reduction in cytopathic effect
Outline: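 Monolayer HeLa cells were pretreated with compound in Eagle's medium with fetal calf serum, then challenged with virus in medium. Untreated and uninfected controls were run. Values are the lowest compound concentration (μg/ml) needed for the scored effect.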

[6] = tested on: Coxsackie A21 virus; assay: Continuous Oral Feeding test in mice challenged IP with Coxsackie A21 virus; type: in vivo; conditions: po, 0.06 % in diet, 240 h
Outline: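 Activity judged by chi-square on 10-day deaths versus untreated controls, with values above 3.84 counted active at 95% confidence. The IP challenge (0.2 ml/mouse, HeLa-grown virus, 80 to 100% lethal in 8 to 12 g mice) came on day 1, after diet containing 0.06% (weight percent) compound began on day 0.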

[7] = tested on: Rhinovirus Type 74; assay: Inhibition of cytopathic effect in WI-38 cell culture tubes, rhinovirus type 74; type: cell-based; conditions: Enterovirus, WI-38 cells, read-out: Inhibition grade, Rhinovirus Type 74; for inhibition at 25 µg/mL: 25 μg/ml
Procedure: as §1, §2, §3

[8] = tested on: Rhinovirus Type 10; assay: Inhibition of cytopathic effect in WI-38 cell culture tubes, rhinovirus type 10; type: cell-based; conditions: Enterovirus, WI-38 cells, read-out: Inhibition grade, Rhinovirus Type 10; for inhibition at 25 µg/mL: 25 μg/ml
Procedure: as §1, §2, §3

[9] = tested on: rhinovirus type 8 (RV-8); assay: Tissue culture testing, rhinovirus type 8 in HeLa cells; type: cell-based; conditions: Enterovirus, 48 and 72 hours, NA = not active at the standard test conditions, read-out: RV-8: lowest concentration of the compound necessary to cause a 50 percent reduction in cytopathic effect
Procedure: as §4, §5

[10] = Cytotoxicity in tissue culture testing (HeLa monolayers); type: cell-based; conditions: human; HeLa cells; observed at 48 and 72 hours post-treatment; read-out: Cytotoxicity: concentration of the compound found to be toxic to the cell
Outline: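 Compound in Eagle's medium plus fetal calf serum was applied to monolayered HeLa cells; cultures were then infected with RV-1A, RV-2 or Coxsackie A21, with RV-5, RV-8 or RV-64 for some compounds. Controls received no compound or no virus.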

[11] = tested on: 20 different rhinoviruses; assay: Summary of WI-38 tissue culture testing against 20 rhinoviruses; type: cell-based; conditions: 3.0 μg/ml
Procedure: as §1, §2, §3

SMILES	inhibition at 25 µg/mL [1] [%]	inhibition at 25 µg/mL [2] [%]	EC50 [3] [µg/mL]	inhibition at 25 µg/mL [4] [%]	EC50 [5] [µg/mL]	Continuous Oral Feeding X^2 (chi-square, deaths vs control) [6]	inhibition at 25 µg/mL [7] [%]	inhibition at 25 µg/mL [8] [%]	EC50 [9] [µg/mL]	MCC [10] [µg/mL]	further results
CS(=O)(=O)c1ccc(Oc2ccc(C(=O)c3ccccc3)cc2)nc1 [Example 31, (4-((5-(methylsulfonyl)-2-pyridinyl)oxy)phenyl)phenylmethanone]	< 50	< 50	6.25 (≈ 17.7 µM)	< 50	5 (≈ 14.1 µM)	24.397	≥ 75	≥ 75	6.25 (≈ 17.7 µM)	> 100	
CCS(=O)(=O)c1ccc(Oc2ccc(Cl)cc2)nc1 [Example 42, 2-(4-chlorophenoxy)-5-(ethylsulfonyl)pyridine]					3.12 (≈ 10.5 µM)	17.64			~50 (≈ 168 µM)	≥ 50	inhibition at 12.5 µg/mL ([1]; 12.5 μg/ml): < 50%; inhibition at 12.5 µg/mL ([2]; 12.5 μg/ml): < 50%; inhibition at 12.5 µg/mL ([4]; 12.5 μg/ml): < 50%; inhibition at 12.5 µg/mL ([7]; 12.5 μg/ml): ≥ 75%; inhibition at 12.5 µg/mL ([8]; 12.5 μg/ml): 50 to 74%
CCS(=O)(=O)c1ccc(Oc2ccc(C(=O)c3ccccc3)cc2)nc1 [Example 43, (4-((5-(ethylsulfonyl)-2-pyridinyl)oxy)phenyl)phenylmethanone]			12.5 (≈ 34 µM)		6.25 (≈ 17 µM)	20.44			25 (≈ 68 µM)	25	inhibition at 3 µg/mL ([1]; 3.0 μg/ml): < 50%; inhibition at 3 µg/mL ([2]; 3.0 μg/ml): < 50%; inhibition at 3 µg/mL ([4]; 3.0 μg/ml): < 50%; inhibition at 3 µg/mL ([7]; 3.0 μg/ml): 50 to 74%; inhibition at 3 µg/mL ([8]; 3.0 μg/ml): < 50%; inhibition of the multiplication of the majority of the 20 test rhinoviruses [11]: failed to inhibit the multiplication of the majority of the 20 test rhinoviruses
CCS(=O)(=O)c1ccc(Oc2ccc(Cl)c(Cl)c2)nc1 [Example 47, 2-(3,4-dichlorophenoxy)-5-(ethylsulfonyl)pyridine]	< 50	< 50		50 to 74	0.625 (≈ 1.88 µM)	1.10	≥ 75	≥ 75		> 50	

Source: US4371537A, “Sulfur-substituted phenoxypyridines having antiviral activity” (The Dow Chemical Company, priority 1981, dated 1983)
